{"source": "patent US8841319B2", "about": "“Use of 3-(indolyl)- or 3-(azaindolyl)-4-arylmaleimide derivatives in leukemia management” (Johannes Gutenberg-Universitat Mainz, priority 2007, dated 2014)", "key": {"[1]": {"tested_on": "murine 32D-FLT3-ITD cells", "test": "Apoptosis assay by cell cycle analysis (sub-G1 fraction) in 32D-FLT3-ITD cells", "assay_type": "cell-based", "conditions": "48 h incubation", "description": "A human FLT3-ITD construct, subcloned into the pAL expression vector under control of the 5′ long terminal repeat (LTR) of the Moloney murine sarcoma virus (MoMSV) and the plasmid pMAM/BSD were used as previously described (Mizuki, M., Schwable, J., Steur, C., Choudhary, C., Agrawal, S., Sargin, B., Steffen, B., Matsumura, I., Kanakura, Y., Bohmer, F. D., Muller-Tidow, C., Berdel, W. E. & Serve, H. (2003) Suppression of myeloid transcription factors and induction of STAT response genes by AML-specific FLT3 mutations. Blood, 101, 3164-3173). The N676K point mutation was introduced into this FLT3-ITD construct (Medigenomix Martinsried, Germany). […]\nThe induction of apoptosis in murine 32D-FLT3-ITD cells measured by sub-G1-fraction in cell cycle analysis upon 48 h incubation with two 3-(indolyl)- and 3-(azaindolyl)-4-phenylmaleimide derivatives (DHF125 and DHF150) was evaluated."}, "[2]": {"tested_on": "FLT3-WT cells", "test": "Apoptosis assay by cell cycle analysis (sub-G1 fraction) in FLT3-WT cells", "assay_type": "cell-based", "conditions": "up to 10 μM, 48 h incubation"}, "[3]": {"tested_on": "STAT5, ERK and AKT", "test": "Western blotting of downstream kinase targets", "assay_type": "cell-based", "experimental": "2×10^6 cells were incubated in the presence of various inhibitor concentrations alone and in combination for 1 hour at 37° C. Preparation of cellular lysates was performed as described previously (Kindler, T., Breitenbuecher, F., Kasper, S., Estey, E., Giles, F., Feldman, E., Ehninger, G., Schiller, G., Klimek, V., Nimer, S. D., Gratwohl, A., Choudhary, C. R., Mueller-Tidow, C., Serve, H., Gschaidmeier, H., Cohen, P. S., Huber, C. & Fischer, T. (2005) Identification of a novel activating mutation (Y842C) within the activation loop of FLT3 in patients with acute myeloid leukemia (AML). Blood, 105, 335-340). Protein lysates were subjected to SDS polyacrylamid gel electrophoresis (SDS-PAGE) and blotted onto nitrocellulose membrane (Amersham, Freiburg, Germany) as previously described (Kindler, et al 2003). The following antibodies were used: anti-phospho-FLT3, anti-phospho-STAT5 (pTyr694/699), anti-phospho AKT (pSer473), anti-phospho ERK (pThr202/pTyr204) (all Cell Signaling Technology™, Frankfurt, Germany), anti-FLT3, anti-AKT and anti-STAT5 (Santa Cruz, Heidelberg, Germany), and anti-β-Actin (ICN). Densitometric analysis was performed using the program Gel-Pro Analyzer®."}, "[4]": {"target": "T1, FLT3-kinase (Homo sapiens, UniProt P36888)", "T1 sequence (P36888 27-993)": "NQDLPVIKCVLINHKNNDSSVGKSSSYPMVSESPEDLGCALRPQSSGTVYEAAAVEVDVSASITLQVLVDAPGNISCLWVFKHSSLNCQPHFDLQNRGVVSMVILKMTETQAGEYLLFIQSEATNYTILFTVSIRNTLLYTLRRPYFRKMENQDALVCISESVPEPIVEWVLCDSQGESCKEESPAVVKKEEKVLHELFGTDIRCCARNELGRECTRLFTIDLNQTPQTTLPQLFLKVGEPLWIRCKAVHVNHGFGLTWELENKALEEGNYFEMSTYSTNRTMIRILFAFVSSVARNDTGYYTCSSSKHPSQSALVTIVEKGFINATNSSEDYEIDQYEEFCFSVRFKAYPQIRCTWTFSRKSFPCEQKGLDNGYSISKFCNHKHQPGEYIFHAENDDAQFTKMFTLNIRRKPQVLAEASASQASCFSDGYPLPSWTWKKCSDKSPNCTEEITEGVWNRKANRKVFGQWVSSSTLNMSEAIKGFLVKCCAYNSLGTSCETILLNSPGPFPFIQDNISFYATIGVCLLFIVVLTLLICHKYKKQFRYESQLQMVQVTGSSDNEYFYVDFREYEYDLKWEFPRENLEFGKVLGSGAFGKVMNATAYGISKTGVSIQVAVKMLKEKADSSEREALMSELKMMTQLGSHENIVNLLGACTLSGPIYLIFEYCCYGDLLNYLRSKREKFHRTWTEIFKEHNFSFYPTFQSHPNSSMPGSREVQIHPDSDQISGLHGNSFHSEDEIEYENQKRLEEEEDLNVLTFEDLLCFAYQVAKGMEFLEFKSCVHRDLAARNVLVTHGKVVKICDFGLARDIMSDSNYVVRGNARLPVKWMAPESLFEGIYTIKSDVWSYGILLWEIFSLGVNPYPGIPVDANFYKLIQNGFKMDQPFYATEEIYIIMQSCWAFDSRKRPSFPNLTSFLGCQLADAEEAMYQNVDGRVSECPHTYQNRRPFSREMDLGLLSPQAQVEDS", "test": "FLT3-kinase assay at two ATP concentrations", "assay_type": "biochemical"}, "[5]": {"tested_on": "FLT3", "test": "Immunoprecipitation of FLT3 (anti-FLT3 and anti-P-Tyr)", "assay_type": "cell-based"}, "[6]": {"tested_on": "FLT3-ITD-positive cells", "test": "Drug combination with chemotherapy, Chou-Talalay plot (CompuSyn)", "assay_type": "cell-based", "experimental": "The chemotherapeutic agents cytarabine and daunorubicine were dissolved and diluted in aqua dest. Equivalent doses of DMSO were added when used for combination treatment.\nFor definition of synergism and/or antagonism in drug combinations we used the CompuSyn™ software (Chou, T C and Martin, N; ComboSyn, Inc. Paramus, N. J., USA) as previously described (Chou, T. C. (2006) Theoretical basis, experimental design, and computerized simulation of synergism and antagonism in drug combination studies. Pharmacol Rev, 58, 621-681)."}, "[7]": {"tested_on": "primary AML blasts harboring the FLT3-ITD mutation", "test": "Apoptosis (sub-G1 fraction, FACS) in primary AML blasts", "assay_type": "cell-based, human", "conditions": "primary AML blasts with FLT3-ITD mutation, 72 h incubation", "experimental": "Transfected murine 32D cells (1×10^5 cells/well) were incubated in 2 ml RPMI medium supplemented with 10% FCS with different inhibitor concentrations for 48 hours at 37° C. Primary human cells (2×10^5 cells/well) were incubated for 72 hours at 37° C. After incubation, cells were washed with ice cold PBS, pelleted and mixed with 300 μl of propidium-iodide-buffer (containing 50 μg/ml PI in 0.1% sodium citrate plus 0.1% Triton X 100, Sigma) for 30 minutes at 4° C. Cell cycle analysis was performed as described previously (Nicoletti, I., Migliorati, G., Pagliacci, M. C., Grignani, F. & Riccardi, C. (1991) A rapid and simple method for measuring thymocyte apoptosis by propidium iodide staining and flow cytometry. J Immunol Methods, 139, 271-279) using a FACSCanto™ flow cytometer (BD Biosciences, Heidelberg, Germany).\nBM- and PB-samples with heparin as anticoagulant were obtained from AML patients or donors with no evidence of malignant bone marrow infiltration after informed consent in a study approved by the local ethics committee. Mononuclear cells (MNC) were isolated immediately by means of Ficoll-Hypaque (Seromed, Berlin, Germany) density gradient centrifugation. […]\nPrimary AML blasts at primary diagnosis were incubated for 72 h with both 3-(indolyl)- and 3-(azaindolyl)-4-phenylmaleimide derivatives. Induction of apoptosis was measured by sub-G1-fraction in FACS analysis. […]"}, "[8]": {"tested_on": "non-malignant bone marrow cells", "test": "Colony assay of non-malignant bone marrow cells", "conditions": "day 10", "quoted_text": "Bone-marrow MNCs were isolated as indicated above. Bone marrow samples were obtained from patients in CR after NHL or AML treatment or without evidence of any malignant bone marrow infiltration. 1×10^5 cells were plated in 1.1 ml Methocult™ (GF H4534) “Complete” Methylcellulose Medium with recombinant cytokines (StemCell Technologies, Vancouver, Canada) and incubated for 10 days at 37° C. in duplicate. Colony formation was counted on day 10."}}, "data": [{"compound": "COc1cc(C2=C(c3c[nH]c4ncccc34)C(=O)NC2=O)cc(OC)c1OC", "note": "[DHF150, 3-(7-Azaindol-3-yl)-4-(3,4,5-trimethoxyphenyl)-1H-pyrrole-2,5-dione]", "values": [{"measurement": "sub-G1-cell fraction (induction of apoptosis)", "setting": "[1]", "value": "statistically very significant dose-dependent increase"}, {"measurement": "induction of apoptosis", "setting": "[2]", "value": "No significant induction of apoptosis"}, {"measurement": "phosphorylation of downstream-targets STAT5, ERK and AKT", "setting": "[3]", "value": "dephosphorylation"}, {"measurement": "inhibition of FLT3-kinase", "setting": "[4]", "value": "ATP competitive inhibition"}, {"measurement": "phosphorylation of FLT3", "setting": "[5]", "value": "dephosphorylation"}, {"measurement": "effect in combination with cytarabine", "setting": "[6]", "value": "synergistic effects"}, {"measurement": "effect in combination with daunorubicine", "setting": "[6]", "value": "synergistic effects"}, {"measurement": "induction of apoptosis, percentage of apoptotic cells on top of ground apoptosis", "setting": "[7]", "value": "17-28%"}, {"measurement": "colony formation", "setting": "[8]; 10 μM", "value": "reduced to a minimum"}, {"measurement": "reduction in colony formation", "setting": "[8]; up to 5 μM", "value": "no significant reduction"}]}, {"compound": "COc1cc(C2=C(c3c[nH]c4ccccc34)C(=O)NC2=O)cc(OC)c1OC", "note": "[DHF125, 3-(Indole-3-yl)-4-(3,4,5-trimethoxyphenyl)-1H-pyrrole-2,5-dione]", "values": [{"measurement": "sub-G1-cell fraction (induction of apoptosis)", "setting": "[1]", "value": "statistically very significant dose-dependent increase"}, {"measurement": "induction of apoptosis", "setting": "[2]", "value": "No significant induction of apoptosis"}, {"measurement": "phosphorylation of downstream-targets STAT5, ERK and AKT", "setting": "[3]", "value": "dephosphorylation"}, {"measurement": "inhibition of FLT3-kinase", "setting": "[4]", "value": "ATP competitive inhibition"}, {"measurement": "phosphorylation of FLT3", "setting": "[5]", "value": "dephosphorylation"}, {"measurement": "effect in combination with cytarabine", "setting": "[6]", "value": "synergistic effects"}, {"measurement": "effect in combination with daunorubicine", "setting": "[6]", "value": "synergistic effects"}, {"measurement": "induction of apoptosis, percentage of apoptotic cells on top of ground apoptosis", "setting": "[7]", "value": "10-17%"}]}]}
